Results reported in the supplement of paper PMC8967900.

Assays:
Experiment in all cases: selective drug sensitivity score (sDSS, relative to normal bone marrow) (sDSS (score)); higher = more potent and effective on the cell line relative to normal bone marrow cells
Conditions in all cases: 72 h
[1] = tested on: MN-60
[2] = tested on: COG-LL-332h
[3] = tested on: NALM-6
[4] = tested on: ALL-PO
[5] = tested on: 380
[6] = tested on: P30-OHKUBO
[7] = tested on: TMD5
[8] = tested on: MHH-CALL-2
[9] = tested on: COG-LL-319h
[10] = tested on: ALL-SIL
[11] = tested on: MHH-CALL-4
[12] = tested on: MOLT-14
[13] = tested on: JURKAT
[14] = tested on: 697
[15] = tested on: HPB-ALL
[16] = tested on: RCH-ACV
[17] = tested on: SEM cells
[18] = tested on: CCRF-CEM
[19] = tested on: COG-LL-402h
[20] = tested on: LC4-1
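Also: ALL cell lines in 384-well plates, five doses spanning 10,000-fold, each plate scaled between vehicle and 100 µmol/L benzalkonium chloride controls, sDSS an adapted area-under-curve metric.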

Row | Compound | selective drug sensitivity score [1] | selective drug sensitivity score [2] | selective drug sensitivity score [3] | selective drug sensitivity score [4] | selective drug sensitivity score [5] | selective drug sensitivity score [6] | selective drug sensitivity score [7] | selective drug sensitivity score [8] | selective drug sensitivity score [9] | selective drug sensitivity score [10] | selective drug sensitivity score [11] | selective drug sensitivity score [12] | selective drug sensitivity score [13] | selective drug sensitivity score [14] | selective drug sensitivity score [15] | selective drug sensitivity score [16] | selective drug sensitivity score [17] | selective drug sensitivity score [18] | selective drug sensitivity score [19] | selective drug sensitivity score [20]
1 | NC1(C(=O)N[C@@H](CCO)c2ccc(Cl)cc2)CCN(c2ncnc3[nH]ccc23)CC1 [AZD-5363] (top concentration 10000 nM) | 0.12 | 4.02 | 7.12 | 5.82 | 8.82 | 5.22 | 6.62 | 7.82 | 4.72 | 3.52 | 5.52 | -1.88 | 6.72 | 5.32 | 1.82 | 10.9 | 4.82 | 9.32 | 5.62 | 1.22
2 | FC(F)(F)c1ccc(CNc2ccc(Cc3c[nH]c4ncc(Cl)cc34)cn2)cn1 [Pexidartinib] (top concentration 10000 nM) | -1.52 | -2.22 | 0.18 | 6.68 | -2.22 | 4.48 | -2.22 | -0.92 | -2.22 | -0.52 | -2.22 | -2.02 | 1.48 | 3.18 | -1.92 | 1.58 | 12.6 | -0.72 | -2.22 | 1.98
3 | COc1c(C)cnc(Cn2cnc3c(Cl)nc(N)nc32)c1C [BIIB021] (top concentration 10000 nM) | -2.62 | 8.98 | 7.88 | 5.88 | 7.68 | 3.38 | 1.58 | 2.48 | 1.78 | 5.88 | 1.28 | 7.28 | 0.48 | 4.28 | 3.58 | 9.58 | 7.38 | 7.88 | 5.78 | 0.98
4 | CC(C)(C)c1cc(NC(=O)Nc2ccc(Oc3ccnc4[nH]c(=O)cnc34)cc2F)n(-c2ccccc2)n1 (top concentration 25000 nM) | 0.42 | 2.02 | -0.98 | 5.72 | -4.68 | -0.08 | 2.32 | -1.48 | -1.08 | 16.1 | 0.42 | -4.58 | -1.48 | 4.72 | 1.12 | 3.82 | 11.4 | -2.18 | -1.78 | -1.48
5 | CCn1c(-c2nonc2N)nc2c(C#CC(C)(C)O)ncc(OC[C@H]3CCCNC3)c21 (top concentration 10000 nM) | 0.08 | 9.28 | 8.78 | 8.18 | 8.58 | 3.88 | -1.12 | 3.48 | 7.38 | 6.68 | 2.98 | 1.68 | 7.48 | 8.28 | 3.98 | 17.1 | 5.28 | 11.9 | 8.28 | 1.08
6 | COc1cc(Nc2ncc(F)c(Nc3ccc4c(n3)NC(=O)C(C)(C)O4)n2)cc(OC)c1OC [Tamatinib] (top concentration 10000 nM) | -5.42 | -0.22 | -5.42 | 9.98 | -5.42 | 4.38 | -5.42 | -4.92 | -0.72 | -5.42 | -4.62 | -4.62 | -5.42 | 1.28 | -5.42 | 14 | 12 | -5.42 | -1.22 | 1.28
7 | CN[C@@H](C)C(=O)N[C@H](C(=O)N1CCC[C@H]1c1nc(C(=O)c2ccc(F)cc2)cs1)C1CCCCC1 [NVP-LCL161] (top concentration 25000 nM) | -5.72 | 2.38 | -5.82 | 0.38 | -5.02 | -1.12 | -1.92 | 3.98 | -2.32 | 0.08 | 1.58 | -3.52 | -3.82 | -4.92 | -2.62 | -0.52 | -0.22 | 1.18 | -5.42 | -5.42
8 | Cn1cc(-c2ccc(F)c(C(F)(F)F)c2)nc1C1CCN(c2ncnc3[nH]ncc23)CC1 (top concentration 10000 nM) | -0.14 | 1.56 | -0.14 | 0.66 | 12.3 | -0.14 | -0.14 | 0.26 | 3.76 | 0.06 | 1.86 | -0.14 | -0.14 | 0.76 | -0.14 | 8.26 | -0.14 | 0.86 | -0.14 | 5.56
9 | Nc1ncnc2c1c(-c1cccc(OCc3ccccc3)c1)cn2[C@H]1C[C@@H](CN2CCC2)C1 [NVP-AEW541] (top concentration 10000 nM) | -3.22 | -1.52 | -4.02 | 3.98 | 4.48 | -2.02 | -7.62 | 3.28 | 5.08 | 4.58 | 0.08 | -1.62 | -4.72 | -2.72 | 1.58 | 1.18 | 1.38 | -2.42 | -0.72 | -0.92
